Tested on: Lox-IMVI melanoma cell line
Test: Lox-IMVI anti-proliferative assay (growth inhibition, Cell Titer-Glo)
Assay type: cell-based, human
Conditions: Homo sapiens; Lox-IMVI melanoma cell line, anti-proliferative assay; read-out: Activity (IC50 activity level)
Outline: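 RPMI/10% FBS; cmpd 0.5 nM–10 μM, 3-fold ×10, duplicate, 0.2% DMSO final; 72 h, 37 °C, 5% CO2. ATP-luminescence readout at t0 and 72 h. IC50 = 50% of DMSO control, 4-parameter logistic fit.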

Row | SMILES | IC50 [nM]
1 | C[C@]1(C(N)=O)CC[C@@H](n2c(Nc3c(F)cc(F)cc3F)nc3cnc(NC4CCC4)nc32)CC1 [Example 607, (1s,4s)-4-(2-(cyclobutylamino)-8-(2,4,6-trifluorophenylamino)-9H-purin-9-yl)-1-methylcyclohexanecarboxamide] | < 250
2 | C[C@]1(C(N)=O)CC[C@@H](n2c(Nc3c(F)cc(Cl)cc3F)nc3cnc(NC4CCC4)nc32)CC1 [Example 608, (1s,4s)-4-(8-(4-chloro-2,6-difluorophenylamino)-2-(cyclobutylamino)-9H-purin-9-yl)-1-methylcyclohexanecarboxamide] | < 250
3 | C[C@]1(C(N)=O)CC[C@@H](n2c(Nc3c(F)cc(F)cc3F)nc3cnc(N[C@H]4CCC[C@H](O)C4)nc32)CC1 [Example 609, (1R,4s)-4-(2-((1S,3S)-3-hydroxycyclohexylamino)-8-(2,4,6-trifluorophenylamino)-9H-purin-9-yl)-1-methylcyclohexanecarboxamide] | 250 to 500
4 | C[C@]1(C(N)=O)CC[C@@H](n2c(Nc3c(F)cc(F)cc3Cl)nc3cnc(N[C@H]4CCC[C@H](O)C4)nc32)CC1 [Example 610, (1R,4s)-4-(8-(2-chloro-4,6-difluorophenylamino)-2-((1S,3S)-3-hydroxycyclohexylamino)-9H-purin-9-yl)-1-methylcyclohexanecarboxamide] | 250 to 500
5 | C[C@]1(C(N)=O)CC[C@@H](n2c(Nc3c(Cl)cc(Cl)cc3Cl)nc3cnc(N[C@H]4CCC[C@H](O)C4)nc32)CC1 [Example 611, (1R,4s)-4-(2-((1S,3S)-3-hydroxycyclohexylamino)-8-(2,4,6-trichlorophenylamino)-9H-purin-9-yl)-1-methylcyclohexanecarboxamide] | < 250
6 | C[C@]1(C(N)=O)CC[C@@H](n2c(Nc3c(F)cc(Cl)cc3Cl)nc3cnc(N[C@H]4CCC[C@H](O)C4)nc32)CC1 [Example 612, (1R,4s)-4-(8-(2,4-dichloro-6-fluorophenylamino)-2-((1S,3S)-3-hydroxycyclohexylamino)-9H-purin-9-yl)-1-methylcyclohexanecarboxamide] | < 250
7 | C[C@]1(C(N)=O)CC[C@@H](n2c(Nc3c(Cl)cc(F)cc3Cl)nc3cnc(N[C@H]4CCC[C@H](O)C4)nc32)CC1 [Example 613, (1R,4s)-4-(8-(2,6-dichloro-4-fluorophenylamino)-2-((1S,3S)-3-hydroxycyclohexylamino)-9H-purin-9-yl)-1-methylcyclohexanecarboxamide] | < 250
8 | C[C@]1(C(N)=O)CC[C@@H](n2c(Nc3c(F)cc(Cl)cc3F)nc3cnc(N[C@H]4CCC[C@H](O)C4)nc32)CC1 [Example 614, (1R,4s)-4-(8-(4-chloro-2,6-difluorophenylamino)-2-((1S,3S)-3-hydroxycyclohexylamino)-9H-purin-9-yl)-1-methylcyclohexanecarboxamide] | < 250
9 | C[C@]1(C(N)=O)CC[C@@H](n2c(Nc3c(F)cc(C#N)cc3Cl)nc3cnc(N[C@H]4CCC[C@H](O)C4)nc32)CC1 [Example 615, (1R,4s)-4-(8-(2-chloro-4-cyano-6-fluorophenylamino)-2-((1S,3S)-3-hydroxycyclohexylamino)-9H-purin-9-yl)-1-methylcyclohexanecarboxamide] | < 250
10 | C[C@]1(C(N)=O)CC[C@@H](n2c(Nc3c(Cl)cc(C#N)cc3Cl)nc3cnc(N[C@H]4CCC[C@H](O)C4)nc32)CC1 [Example 616, (1R,4s)-4-(8-(2,6-dichloro-4-cyanophenylamino)-2-((1S,3S)-3-hydroxycyclohexylamino)-9H-purin-9-yl)-1-methylcyclohexanecarboxamide] | < 250
11 | C[C@]1(C(N)=O)CC[C@@H](n2c(Nc3c(F)cc(F)cc3F)nc3cnc(N[C@@H]4CCC[C@@H](O)C4)nc32)CC1 [Example 617, (1S,4s)-4-(2-((1R,3R)-3-hydroxycyclohexylamino)-8-(2,4,6-trifluorophenylamino)-9H-purin-9-yl)-1-methylcyclohexanecarboxamide] | > 1000
12 | C[C@]1(C(N)=O)CC[C@@H](n2c(Nc3c(F)cc(F)cc3Cl)nc3cnc(N[C@@H]4CCC[C@@H](O)C4)nc32)CC1 [Example 618, (1S,4s)-4-(8-(2-chloro-4,6-difluorophenylamino)-2-((1R,3R)-3-hydroxycyclohexylamino)-9H-purin-9-yl)-1-methylcyclohexanecarboxamide] | 500 to 1000
13 | C[C@]1(C(N)=O)CC[C@@H](n2c(Nc3c(Cl)cc(Cl)cc3Cl)nc3cnc(N[C@@H]4CCC[C@@H](O)C4)nc32)CC1 [Example 619, (1S,4s)-4-(2-((1R,3R)-3-hydroxycyclohexylamino)-8-(2,4,6-trichlorophenylamino)-9H-purin-9-yl)-1-methylcyclohexanecarboxamide] | 500 to 1000
14 | C[C@]1(C(N)=O)CC[C@@H](n2c(Nc3c(F)cc(Cl)cc3Cl)nc3cnc(N[C@@H]4CCC[C@@H](O)C4)nc32)CC1 [Example 620, (1S,4s)-4-(8-(2,4-dichloro-6-fluorophenylamino)-2-((1R,3R)-3-hydroxycyclohexylamino)-9H-purin-9-yl)-1-methylcyclohexanecarboxamide] | 500 to 1000
15 | C[C@]1(C(N)=O)CC[C@@H](n2c(Nc3c(Cl)cc(F)cc3Cl)nc3cnc(N[C@@H]4CCC[C@@H](O)C4)nc32)CC1 [Example 621, (1S,4s)-4-(8-(2,6-dichloro-4-fluorophenylamino)-2-((1R,3R)-3-hydroxycyclohexylamino)-9H-purin-9-yl)-1-methylcyclohexanecarboxamide] | > 1000
16 | C[C@]1(C(N)=O)CC[C@@H](n2c(Nc3c(F)cc(Cl)cc3F)nc3cnc(N[C@@H]4CCC[C@@H](O)C4)nc32)CC1 [Example 622, (1S,4s)-4-(8-(4-chloro-2,6-difluorophenylamino)-2-((1R,3R)-3-hydroxycyclohexylamino)-9H-purin-9-yl)-1-methylcyclohexanecarboxamide] | 500 to 1000
17 | C[C@]1(C(N)=O)CC[C@@H](n2c(Nc3c(F)cc(C#N)cc3Cl)nc3cnc(N[C@@H]4CCC[C@@H](O)C4)nc32)CC1 [Example 623, (1S,4s)-4-(8-(2-chloro-4-cyano-6-fluorophenylamino)-2-((1R,3R)-3-hydroxycyclohexylamino)-9H-purin-9-yl)-1-methylcyclohexanecarboxamide] | 250 to 500
18 | C[C@]1(C(N)=O)CC[C@@H](n2c(Nc3c(Cl)cc(C#N)cc3Cl)nc3cnc(N[C@@H]4CCC[C@@H](O)C4)nc32)CC1 [Example 624, (1S,4s)-4-(8-(2,6-dichloro-4-cyanophenylamino)-2-((1R,3R)-3-hydroxycyclohexylamino)-9H-purin-9-yl)-1-methylcyclohexanecarboxamide] | 250 to 500
19 | C[C@]1(C(N)=O)CC[C@@H](n2c(Nc3c(F)cc(F)cc3F)nc3cnc(N[C@H]4CCC[C@@H](O)C4)nc32)CC1 [Example 625, (1R,4s)-4-(2-((1S,3R)-3-hydroxycyclohexylamino)-8-(2,4,6-trifluorophenylamino)-9H-purin-9-yl)-1-methylcyclohexanecarboxamide] | > 1000
20 | C[C@]1(C(N)=O)CC[C@@H](n2c(Nc3c(F)cc(F)cc3Cl)nc3cnc(N[C@H]4CCC[C@@H](O)C4)nc32)CC1 [Example 626, (1R,4s)-4-(8-(2-chloro-4,6-difluorophenylamino)-2-((1S,3R)-3-hydroxycyclohexylamino)-9H-purin-9-yl)-1-methylcyclohexanecarboxamide] | 500 to 1000
21 | C[C@]1(C(N)=O)CC[C@@H](n2c(Nc3c(Cl)cc(Cl)cc3Cl)nc3cnc(N[C@H]4CCC[C@@H](O)C4)nc32)CC1 [Example 627, (1R,4s)-4-(2-((1S,3R)-3-hydroxycyclohexylamino)-8-(2,4,6-trichlorophenylamino)-9H-purin-9-yl)-1-methylcyclohexanecarboxamide] | < 250
22 | C[C@]1(C(N)=O)CC[C@@H](n2c(Nc3c(F)cc(Cl)cc3Cl)nc3cnc(N[C@H]4CCC[C@@H](O)C4)nc32)CC1 [Example 628, (1R,4s)-4-(8-(2,4-dichloro-6-fluorophenylamino)-2-((1S,3R)-3-hydroxycyclohexylamino)-9H-purin-9-yl)-1-methylcyclohexanecarboxamide] | < 250
23 | N#Cc1cc(F)c(Nc2nc3cnc(N[C@@H]4CCOC[C@H]4F)nc3n2[C@H]2CC[C@@H](C(N)=O)CC2)c(Cl)c1 [Example 629, (1S,4s)-4-(8-(2-chloro-4-cyano-6-fluorophenylamino)-2-((3S,4R)-3-fluorotetrahydro-2H-pyran-4-ylamino)-9H-purin-9-yl)cyclohexanecarboxamide] | < 250
24 | NC(=O)[C@H]1CC[C@@H](n2c(Nc3c(F)cc(F)cc3Cl)nc3cnc(N[C@@H]4CCOC[C@H]4F)nc32)CC1 [Example 630, (1S,4s)-4-(8-(2-chloro-4,6-difluorophenylamino)-2-((3S,4R)-3-fluorotetrahydro-2H-pyran-4-ylamino)-9H-purin-9-yl)cyclohexanecarboxamide] | < 250
25 | C[C@]1(C(N)=O)CC[C@@H](n2c(Nc3c(Cl)cc(F)cc3Cl)nc3cnc(N[C@H]4CCC[C@@H](O)C4)nc32)CC1 [Example 631, (1R,4s)-4-(8-(2,6-dichloro-4-fluorophenylamino)-2-((1S,3R)-3-hydroxycyclohexylamino)-9H-purin-9-yl)-1-methylcyclohexanecarboxamide] | 500 to 1000
26 | C[C@]1(C(N)=O)CC[C@@H](n2c(Nc3c(F)cc(Cl)cc3F)nc3cnc(N[C@H]4CCC[C@@H](O)C4)nc32)CC1 [Example 632, (1R,4s)-4-(8-(4-chloro-2,6-difluorophenylamino)-2-((1S,3R)-3-hydroxycyclohexylamino)-9H-purin-9-yl)-1-methylcyclohexanecarboxamide] | 500 to 1000
27 | C[C@]1(C(N)=O)CC[C@@H](n2c(Nc3c(F)cc(C#N)cc3Cl)nc3cnc(N[C@H]4CCC[C@@H](O)C4)nc32)CC1 [Example 633, (1R,4s)-4-(8-(2-chloro-4-cyano-6-fluorophenylamino)-2-((1S,3R)-3-hydroxycyclohexylamino)-9H-purin-9-yl)-1-methylcyclohexanecarboxamide] | 500 to 1000
